# Source: patent US20060019329A1, “Method of screening for protein inhibitors and activators” (priority 1988, published 2006)
# Key:
# [1] = biological target: high affinity phorbol-ester binding sites (PKC); details: read-out: affinity constant (Kd) of phorbol ester binding; control cell line R6-C1; intact cells; Scatchard; approximately the same in both cell lines
# Description: Cells were plated at 1×10^5 per 4 cm well on day 1, the medium was changed on day 2 and the cells then assayed on day 3. […] The plates were washed 3× with 4 ml ice-cold PBS. The cells were solubilized in 1 ml 1% SDS/10 mM DTT for 2 hrs at 37° C. The lysate was transferred to a scintillation vial and counted.
# [2] = tested on: cell lines overproducing PKC; assay: Growth in agar of cell lines overproducing PKC (further screening of activators and inhibitors); assay type: cell-based, rat
# Description: (§1) Cells were seeded at a density of 10^4/plate in a series of 60 mm plates, in 5 ml DMEM plus 10% CS. Twenty-four hours later, cells in triplicate plates were trypsinized and counted. This point was designated “day 0.” The remaining cultures were then grown in the respective medium (i.e. plus or minus 100 ng/ml TPA) with fresh medium changes twice per week. Cell counts per plate were then determined on triplicate plates during the remainder of the growth curve (FIG. 3). The results obtained were analyzed for exponential doubling time and saturation density (Table 2). To assess growth in soft agar (anchorage independence), 2×10^4 cells were suspended in 2 ml of 0.3% Bacto agar (Difco Laboratories, Detroit, Mich.) in DMEM containing 20% fetal calf serum (FCS) and overlayed above a layer of 5 ml of 0.5% agar in the same medium, on 60 mm petri dishes. The cells were then overlaid with DMEM plus 20% FCS every 4 days. At the end of 30 days, colonies were stained with the vital stain 2-(p-iodophenyl)-3-(p-nitrophenyl)-5-phenyltetrazolinium chloride hydrate (INT) (Sigma Chemical Co., St. Louis, Mo.) for 48 hours at 37° C., in an incubator with 5% CO2 (Schaeffer and Friend, 1976), and the number of colonies counted under low power on an inverted phase microscope. The data are expressed as “cloning efficiency”, i.e. number of colonies greater than 0.05 mm per plate X 100 divided by the number of cells originally seeded per plate.
# Additional compounds tested included the tumor promoters teleocidin, aplysiatoxin, and mezerein, all of which are known activators of PKC (O'Brian, et al., CSH, 1985).
# Inhibition of the growth of the R6-PKC3 cells in agar in the presence of tamoxifen provided critical evidence that tamoxifen could inhibit PKC-mediated stimulation of cellular growth.
# [3] = tested on: R6-PKC5 cells (Rat 6 fibroblasts overproducing PKCbeta1); assay: Growth in soft agar (anchorage independence), R6-PKC5; assay type: cell-based
# Description: as §1
# (§2) I also assayed these cell lines for their ability to form colonies in soft agar, since with rodent cells the acquisition of anchorage-independent growth often correlates with tumorigenicity (Freedman and Shin, 1974).
# [4] = tested on: R6-PKC3 cells (Rat 6 fibroblasts overproducing PKCbeta1); assay: Growth in soft agar (anchorage independence), R6-PKC3; assay type: cell-based
# Description: as §1, §2
# R6-PKC5 cells [5] = assay: Growth in monolayer culture, R6-PKC5; assay type: cell-based, rat; details: R6-PKC5 (test), + TPA 100 ng/ml
# Description: (§3) Cells were seeded at a density of 10^4/plate in a series of 60 mm plates, in 5 ml DMEM plus 10% CS. Twenty-four hours later, cells in triplicate plates were trypsinized and counted. This point was designated “day 0.” The remaining cultures were then grown in the respective medium (i.e. plus or minus 100 ng/ml TPA) with fresh medium changes twice per week. Cell counts per plate were then determined on triplicate plates during the remainder of the growth curve (FIG. 3). The results obtained were analyzed for exponential doubling time and saturation density (Table 2). To assess growth in soft agar (anchorage independence), 2×10^4 cells were suspended in 2 ml of 0.3% Bacto agar (Difco Laboratories, Detroit, Mich.) in DMEM containing 20% fetal calf serum (FCS) and overlayed above a layer of 5 ml of 0.5% agar in the same medium, on 60 mm petri dishes. […] At the end of 30 days, colonies were stained with the vital stain 2-(p-iodophenyl)-3-(p-nitrophenyl)-5-phenyltetrazolinium chloride hydrate (INT) (Sigma Chemical Co., St. Louis, Mo.) for 48 hours at 37° C., in an incubator with 5% CO2 (Schaeffer and Friend, 1976), and the number of colonies counted under low power on an inverted phase microscope. The data are expressed as “cloning efficiency”, i.e. number of colonies greater than 0.05 mm per plate X 100 divided by the number of cells originally seeded per plate. […]
# R6-PKC3 cells [6] = assay: Growth in monolayer culture, R6-PKC3; assay type: cell-based, rat
# Description: as §1
# It was also of interest to determine the growth rates of these cells in monolayer culture. Detailed growth curves were performed on R6-C1, R6-PKC3 and R6-PKC5 cells in 10% calf serum and DMEM medium, in the absence and presence of 100 ng/ml TPA.
# R6-PKC3 cells [7] = assay: Morphologic response to phorbol ester treatment, R6-PKC3; assay type: cell-based, rat
# Description: (§4) FIG. 4. Morphologic Responses of the Cell Lines to Phorbol Ester Treatment. Nearly confluent cultures of the three indicated cell lines were exposed to 100 ng/ml TPA in 0.1% dimethylsulfoxide (DMSO) solvent (“+TPA”) or 0.1% DMSO alone (“−TPA”), in DMEM plus 10% CS. Photographs were taken 24 hours later (Panels A and D) and 48 hours later (Panels B and E). Fresh medium plus or minus TPA was then added and photographs were then taken an additional 24 hours later (Panels C and F). (Magnification: 100×).
# (§5) All of the cell lines were then exposed to a second, fresh dose of TPA (100 ng/ml) and examined 24 hours later (FIG. 4, Panel F), i.e., 72 hours after the first dose of TPA.
# R6-C1 control cells [8] = assay: Growth in monolayer culture, control R6-C1; assay type: cell-based, rat; details: R6C1 (control), + TPA 100 ng/ml
# Description: as §3
# [9] = tested on: R6-C1 control cells (Rat 6 fibroblasts with pMV7 alone); assay: Growth in soft agar (anchorage independence), control R6-C1; assay type: cell-based
# Description: as §3
# R6-C1 control cells [10] = assay: Morphologic response to phorbol ester treatment, control R6-C1; assay type: cell-based, rat
# Description: as §4, §5
# R6-PKC5 cells [11] = assay: Morphologic response to phorbol ester treatment, R6-PKC5; assay type: cell-based, rat
# Description: as §4, §5
# [12] = tested on: FDC-P1 cells overproducing PKC beta1; assay: Morphologic response of FDC-P1 cells overproducing PKCbeta1 to PKC activators; assay type: cell-based; details: 100 nM TPA, after 12 hours
# Description: Several cell lines were plated at 3×10E4 cells/ml and treated with 100 nM TPA. After 12 hours, representative fields were photographed. […] The latter clumps are easily visualized with standard cell stains such as Giemsa, and stain much darker than the corresponding control cells under these conditions.
# PKC = details: cell-free assay (O'Brian, et al, Cancer Res., 1985); cited from earlier work
# [13] = initial exponential phase, DMEM plus 10% CS
# [14] = 24 hours after second 100 ng/ml dose (72 hours after first)
# [15] = R6-PKC5 (test), + TPA 100 ng/ml, 0.3% agar
# [16] = R6-PKC3 (test), + TPA 100 ng/ml, 0.3% agar
smiles,measurement,setting,value
CCCC(=O)O[C@@H]1[C@@H](C)[C@@]2(O)[C@@H](C=C(CO)C[C@]3(O)C(=O)C(C)=C[C@@H]23)[C@@H]2C(C)(C)[C@]12OC(=O)CCC [3H-PDBu],Kd,[1],16 nM
"CC1CNCCN1S(=O)(=O)c1cccc2cnccc12 (stereo not shown) [H-7, 1-(5-Isoquinolinesulfonyl)-2-methyl-piperazine]",modulation of the growth of the cells,"[2]; PKC-overproducing cell lines, known activators or inhibitor of PKC",modulated the growth of the cells in the expected manner
same,Effic. of Growth In Agar (%),"[3]; R6-PKC5, inhibitor 2 μM",21%
same,Effic. of Growth In Agar (%),"[3]; R6-PKC5, inhibitor 5 μM",16%
same,Effic. of Growth In Agar (%),"[3]; R6-PKC5, inhibitor 10 μM",4%
same,Effic. of Growth In Agar (%),"[3]; R6-PKC5, inhibitor 50 μM",1%
same,Effic. of Growth In Agar (%),"[3]; R6-PKC5, inhibitor 100 μM",0%
same,Effic. of Growth In Agar (%),"[4]; R6-PKC3, inhibitor 2 μM",25%
same,Effic. of Growth In Agar (%),"[4]; R6-PKC3, inhibitor 5 μM",22%
same,Effic. of Growth In Agar (%),"[4]; R6-PKC3, inhibitor 10 μM",17%
same,Effic. of Growth In Agar (%),"[4]; R6-PKC3, inhibitor 50 μM",4%
same,Effic. of Growth In Agar (%),"[4]; R6-PKC3, inhibitor 100 μM",0%
"CCCCCCCCCCCCCC(=O)O[C@@H]1[C@@H](C)[C@@]2(O)[C@@H](C=C(CO)C[C@]3(O)C(=O)C(C)=C[C@@H]23)[C@@H]2C(C)(C)[C@]12OC(C)=O [TPA, 12-O-tetradecanoylphorbol-13-acetate]",Monolayer Saturat. Density,R6-PKC5 cells [5]; cells per 6 cm plate on day 11,7.0 × 10^6
same,Monolayer Doubling Time,R6-PKC5 cells [5]; [13],22.9 h
same,Monolayer Saturat. Density,"R6-PKC3 cells [6]; R6-PKC3 (test), + TPA 100 ng/ml, cells per 6 cm plate on day 11",10.0 × 10^6
same,Monolayer Doubling Time,"R6-PKC3 cells [6]; R6-PKC3 (test), + TPA 100 ng/ml, initial exponential phase, DMEM plus 10% CS",21.5 h
same,cell density when maintained in TPA for a longer period,"R6-PKC3 cells [6]; R6-PKC3, monolayer, longer period in presence of TPA, cells detach from plate",showed a decline in cell density
same,morphology after TPA,R6-PKC3 cells [7]; 24 hours after 100 ng/ml TPA,very long cytoplasmic processes and numerous refractile cell bodies
same,morphologic response to second dose of TPA,R6-PKC3 cells [7]; [14],continued to display their altered morphology as well as an increase in cell density
same,morphology after TPA,R6-PKC3 cells [7]; 48 hours after 100 ng/ml TPA,continued to display an altered morphology
same,Monolayer Saturat. Density,R6-C1 control cells [8]; cells per 6 cm plate on day 11,4.2 × 10^6
same,Monolayer Doubling Time,R6-C1 control cells [8]; [13],24.6 h
same,Agar Colony Size,[3]; [15],0.10-0.15 mm
same,Agar Effic.,[3]; [15],34.7%
same,colony sizes and cloning efficiencies in agar,"[3]; R6-PKC5, TPA 100 ng/ml in agar medium",enhanced
same,growth in agar,"[9]; R6-C1, TPA 100 ng/ml in agar medium",still failed to grow in agar
same,Agar Effic.,"[9]; R6C1 (control), + TPA 100 ng/ml, 0.3% agar",0%
same,Agar Colony Size,[4]; [16],0.15-0.35 mm
same,Agar Effic.,[4]; [16],29.7%
same,colony sizes and cloning efficiencies in agar,"[4]; R6-PKC3, TPA 100 ng/ml in agar medium",enhanced
same,morphology after TPA,R6-C1 control cells [10]; 24 hours after 100 ng/ml TPA,more elongated and dendritic cells and a criss-cross pattern
same,morphologic response to second dose of TPA,R6-C1 control cells [10]; [14],failed to respond
same,morphology after TPA,R6-C1 control cells [10]; 48 hours after 100 ng/ml TPA,returned to its normal appearance
same,morphologic changes after TPA compared with control,R6-PKC5 cells [11]; 24 hours after 100 ng/ml TPA,much more dramatic
same,morphologic response to second dose of TPA,R6-PKC5 cells [11]; [14],only slight changes in morphology
same,morphology after TPA,"R6-PKC5 cells [11]; 48 hours after 100 ng/ml TPA, to a lesser extent than R6-PKC3",continued to display an altered morphology
same,morphologic changes,[12],profound morphologic changes
"CC/C(=C(\c1ccccc1)c1ccc(OCCN(C)C)cc1)c1ccccc1 [Tamoxifen, tamoxifen]",inhibition of growth in agar,[2]; all of the cell lines overproducing PKC,completely inhibiting the growth in agar
same,effect on PKC enzyme activity,PKC,inhibits PKC enzyme activity
same,Effic. of Growth In Agar (%),"[3]; R6-PKC5, inhibitor 5 μM",19%
same,Effic. of Growth In Agar (%),"[3]; R6-PKC5, inhibitor 20 μM",17%
same,Effic. of Growth In Agar (%),"[3]; R6-PKC5, inhibitor 50 μM",8%
same,Effic. of Growth In Agar (%),"[3]; R6-PKC5, inhibitor 100 μM",0%
same,Effic. of Growth In Agar (%),"[3]; R6-PKC5, inhibitor 200 μM",0%
same,Effic. of Growth In Agar (%),"[4]; R6-PKC3, inhibitor 5 μM",27%
same,Effic. of Growth In Agar (%),"[4]; R6-PKC3, inhibitor 20 μM",22%
same,Effic. of Growth In Agar (%),"[4]; R6-PKC3, inhibitor 50 μM",15%
same,Effic. of Growth In Agar (%),"[4]; R6-PKC3, inhibitor 100 μM",6%
same,Effic. of Growth In Agar (%),"[4]; R6-PKC3, inhibitor 200 μM",0%
